Results reported in patent publication US20130142882A1, “METHODS AND COMPOSITIONS FOR TREATMENT, MODIFICATION AND MANAGEMENT OF BONE CANCER PAIN” (GOLDEN BIOTECHNOLOGY CORPORATION, priority 2011, published 2013).

Tested on: rat model of bone cancer pain (Walker 256 rat mammary gland carcinoma cells injected into the right tibia)
Test: Mechanical allodynia (Von Frey test) in a rat model of bone cancer pain
Assay type: in vivo, Rat (Sprague-Dawley)
Settings: 30 μg/kg s.c. every second day
Method: The objective of this study was to assess the potential anti-nociceptive and anti-tumourigenic effects of Compound 1, at doses of 15, 30 and 45 mg/kg, in an animal model of bone cancer pain. Metastasis of cancer cells to the bone was modeled by injecting Walker 256 rat mammary gland carcinoma cells into the medullary cavity of the right tibia (Mao-Yinga, et al. A rat model of bone cancer pain induced by intra-tibia inoculation of Walker 256 mammary gland carcinoma cells. Biochem Biophys Res Commun 2006; 345: 1292-1298). The development of mechanical allodynia was monitored using an established behavioural test (Von Frey test). Treatment administration was chronic, from the day of surgery, and administered twice daily for 21 days to determine whether there was a prophylactic effect on the development of mechanical allodynia. Zoledronic acid was used as a reference substance. No regulatory test guidelines were applicable to this study.
Rats have been studied in this model of bone cancer pain. The route of administration of Compound 1 and vehicle was oral. The doses of Compound 1 were 15, 30 and 45 mg/kg, twice a day (approximately 10 h apart) for 21 days.
The dose of zoledronic acid was 30 μg/kg, as a single administration, every second day from the day of surgery, based on historical data. The route of administration of zoledronic acid was subcutaneous.
The dose volume for test substance and vehicle treatments was 5 mL/kg. The vehicle for Compound 1 was corn oil. Each rat allocated to test substance or vehicle treatments received an oral dose, by gavage, twice daily (approximately 8 am and 6 pm) for 21 consecutive days. The dose volume for the reference substance treatment was 1 mL/kg. Each rat allocated to reference substance treatment received a single subcutaneous dose, by injection (approximately 8 am) every second day from the day of surgery.
Cell preparation. Walker 256 rat mammary gland carcinoma cells (obtained from the American Type Culture Collection (ATCC)) were harvested from sub-confluent cultures growing in vitro and the number of viable cells determined. Cells were then re-suspended in sterile phosphate buffered saline (PBS) at a concentration of 4×10^5 cells. Female Sprague-Dawley rats were intratibially injected in the right leg with 4×10^5 Walker 256 rat mammary gland carcinoma cells in a volume of 6 μL as detailed in Surgical procedure below.
Baseline behavioural testing. The rats were moved to the procedure room 5 days prior to behavioural testing. The rats were then housed, dosed and observed in the procedure room. The behavioural test was performed on all rats on 2 separate occasions prior to surgery, to establish baseline values. Pre-surgery baseline values were taken as the data from the final (second) day of testing (the data from the first day of testing was not included but classed as part of the acclimatisation).
Mechanical allodynia (Von Frey test): Each animal was placed in a wire mesh cage and a series of Von Frey filaments were applied to the plantar surface of the hind paw, from below. The filaments were applied in ascending order (starting with the weakest force), and the withdrawal threshold for both the left and right hind paws were evaluated. Each filament was indented on the mid-plantar surface of the foot to the point where it just started to bend; this was repeated approximately 8 to 10 times per filament at a frequency of approximately 1 Hz. The withdrawal threshold was defined as the lowest force of two or more consecutive Von Frey filaments to elicit a reflex withdrawal response (i.e. a brief paw flick).
Surgical procedure. The animals were surgically prepared over 2 days. Each rat was anaesthetised as necessary with isofluorane in […]. The surface around the incision site was shaved and sterilised. Under aseptic conditions, an incision was made in the skin over the top of the right tibia to expose the tibia head with minimal damage. […]

O=P(O)(O)C(O)(Cn1ccnc1)P(=O)(O)O [Zoledronic acid, reference compound]
Withdrawal Threshold (Log 10 (force (g) × 10 000)) on Day Post-Operative (Day 6, left paw): 5.35 Log 10 (force (g) × 10 000)
Withdrawal threshold (g) on day post-operative (Day 6, left paw): 22.55 g
Withdrawal Threshold (Log 10 (force (g) × 10 000)) on Day Post-Operative (Day 6, right paw): 5.28 Log 10 (force (g) × 10 000)
Withdrawal threshold (g) on day post-operative (Day 6, right paw): 19.49 g
Withdrawal Threshold (Log 10 (force (g) × 10 000)) on Day Post-Operative (Day 12, left paw): 5.17 Log 10 (force (g) × 10 000)
Withdrawal threshold (g) on day post-operative (Day 12, left paw): 15.14 g
Withdrawal Threshold (Log 10 (force (g) × 10 000)) on Day Post-Operative (Day 12, right paw): 4.98 Log 10 (force (g) × 10 000)
Withdrawal threshold (g) on day post-operative (Day 12, right paw): 9.95 g
Withdrawal Threshold (Log 10 (force (g) × 10 000)) on Day Post-Operative (Day 14, left paw): 5.15 Log 10 (force (g) × 10 000)
Withdrawal threshold (g) on day post-operative (Day 14, left paw): 15.02 g
Withdrawal Threshold (Log 10 (force (g) × 10 000)) on Day Post-Operative (Day 14, right paw): 4.99 Log 10 (force (g) × 10 000)
Withdrawal threshold (g) on day post-operative (Day 14, right paw): 10.28 g
Withdrawal Threshold (Log 10 (force (g) × 10 000)) on Day Post-Operative (Day 19, left paw): 5.14 Log 10 (force (g) × 10 000)
Withdrawal threshold (g) on day post-operative (Day 19, left paw): 14.66 g
Withdrawal Threshold (Log 10 (force (g) × 10 000)) on Day Post-Operative (Day 19, right paw): 4.97 Log 10 (force (g) × 10 000)
Withdrawal threshold (g) on day post-operative (Day 19, right paw): 10.37 g
Withdrawal Threshold (Log 10 (force (g) × 10 000)) on Day Post-Operative (Day 21, left paw): 5.15 Log 10 (force (g) × 10 000)
Withdrawal threshold (g) on day post-operative (Day 21, left paw): 15.46 g
Withdrawal threshold (g) on day post-operative (Day 21, left paw, listed as zoledronic acid): 15.46 ± 2.06 g
Withdrawal Threshold (Log 10 (force (g) × 10 000)) on Day Post-Operative (Day 21, right paw): 5.04 Log 10 (force (g) × 10 000)
Withdrawal threshold (g) on day post-operative (Day 21, right paw): 13.25 g
Withdrawal threshold (g) on day post-operative (Day 21, right paw, listed as zoledronic acid): 13.25 ± 2.28 g
Withdrawal Threshold (Log 10 (force (g) × 10 000)) on Day Post-Operative (Pre-Surgery, left paw): 5.32 Log 10 (force (g) × 10 000)
Withdrawal threshold (g) on day post-operative (Pre-Surgery, left paw): 21.02 g
Withdrawal Threshold (Log 10 (force (g) × 10 000)) on Day Post-Operative (Pre-Surgery, right paw): 5.30 Log 10 (force (g) × 10 000)
Withdrawal threshold (g) on day post-operative (Pre-Surgery, right paw): 20.26 g
